Activity calls are given as the source filed them. How the calls were made is not given here.
System: CCRIS mutagenicity, Ames/micronucleus/aberration tests
Test: CCRIS mutagenicity studies
[1] = Test System: AMES SALMONELLA TYPHIMURIUM, Strain/Indicator: TA98, Metabolic Activation: NONE, Method: PREINCUBATION
[2] = Test System: AMES SALMONELLA TYPHIMURIUM, Strain/Indicator: TA98, Metabolic Activation: NONE, Method: STANDARD PLATE
[3] = Test System: AMES SALMONELLA TYPHIMURIUM, Strain/Indicator: TA100, Metabolic Activation: NONE, Method: PREINCUBATION
[4] = Test System: AMES SALMONELLA TYPHIMURIUM, Strain/Indicator: TA100, Metabolic Activation: NONE, Method: STANDARD PLATE
[5] = Test System: AMES SALMONELLA TYPHIMURIUM, Strain/Indicator: TA100, Metabolic Activation: RAT, LIVER, S-9, AROCLOR 1254, Method: STANDARD PLATE

For CC(=O)OCc1c(O)c(C(=O)O)c(C)c2c1OC(=O)c1c(C)cc(O)c(C=O)c1O2, the mutagenic call [1] was “inactive; negative”, the mutagenic call [2] was “inactive; negative” and the mutagenic call (Test System: AMES SALMONELLA TYPHIMURIUM, Strain/Indicator: TA98, Metabolic Activation: RAT, LIVER, S-9, Method: PREINCUBATION) was “inactive; negative”. The mutagenic call (Test System: AMES SALMONELLA TYPHIMURIUM, Strain/Indicator: TA98, Metabolic Activation: RAT, LIVER, S-9, Method: STANDARD PLATE) was “inactive; negative”, the mutagenic call [3] was “active; positive” and the mutagenic call [4] was “inactive; negative”. The mutagenic call (Test System: AMES SALMONELLA TYPHIMURIUM, Strain/Indicator: TA100, Metabolic Activation: RAT, LIVER, S-9, Method: PREINCUBATION) was “active; positive” and the mutagenic call (Test System: AMES SALMONELLA TYPHIMURIUM, Strain/Indicator: TA100, Metabolic Activation: RAT, LIVER, S-9, Method: STANDARD PLATE) was “active; positive”.
O[C@H]1C=Cc2c(ccc3cc4c(ccc5ccccc54)cc23)[C@@H]1O was tested, and the mutagenic call [5] was “active; positive”.
For Cc1cc2nc3c(ccc4ccccc43)c(C)c2cc1C, the mutagenic call (Test System: AMES SALMONELLA TYPHIMURIUM, Strain/Indicator: TA97A, Metabolic Activation: NONE, Method: PREINCUBATION) was “active; positive”, the mutagenic call [1] was “inactive; negative” and the mutagenic call [3] was “inactive; negative”. The mutagenic call (Test System: AMES SALMONELLA TYPHIMURIUM, Strain/Indicator: TA102, Metabolic Activation: NONE, Method: PREINCUBATION) was “active; positive”.
COc1c(Cl)ccc2oc3cc4c(c(OC)c3c(=O)c12)[C@@H]1C=CO[C@@H]1O4 was tested, and the mutagenic call [2] was “inactive; negative”, the mutagenic call (Test System: AMES SALMONELLA TYPHIMURIUM, Strain/Indicator: TA98, Metabolic Activation: RAT, LIVER, S-9, AROCLOR 1254, Method: STANDARD PLATE) was “active; positive” and the mutagenic call [4] was “active; positive”. The mutagenic call [5] was “active; positive”.
In the case of O/N=C/c1ccccn1, the mutagenic call (Test System: AMES SALMONELLA TYPHIMURIUM, Strain/Indicator: TA102, Metabolic Activation: RAT, LIVER, S-9, PHENOBARBITAL AND 5,6-BENZOFLAVONE, Method: STANDARD PLATE) is reported as “inactive; negative”, the mutagenic call (Test System: AMES SALMONELLA TYPHIMURIUM, Strain/Indicator: TA2638, Metabolic Activation: RAT, LIVER, S-9, PHENOBARBITAL AND 5,6-BENZOFLAVONE, Method: STANDARD PLATE) is reported as “inactive; negative” and the mutagenic call (Test System: E. COLI, Strain/Indicator: WP2 (PKM101), Metabolic Activation: RAT, LIVER, S-9, PHENOBARBITAL AND 5,6-BENZOFLAVONE, Method: STANDARD PLATE) is reported as “inactive; negative”. The mutagenic call (Test System: E. COLI, Strain/Indicator: WP2 UVRA (PKM101), Metabolic Activation: RAT, LIVER, S-9, PHENOBARBITAL AND 5,6-BENZOFLAVONE, Method: STANDARD PLATE) was “active; positive”.
With COC(=O)C1=C(C)NC(COC(N)=O)=C(C(=O)OC(C)C)C1c1cccc(Cl)c1Cl (stereo unspecified) the mutagenic call [1] was “inactive; negative”, the mutagenic call (Test System: AMES SALMONELLA TYPHIMURIUM, Strain/Indicator: TA98, Metabolic Activation: RAT, LIVER, S-9, PHENOBARBITAL AND 5,6-BENZOFLAVONE, Method: PREINCUBATION) was “inactive; negative” and the mutagenic call [3] was “inactive; negative”. For the same compound, the mutagenic call (Test System: AMES SALMONELLA TYPHIMURIUM, Strain/Indicator: TA100, Metabolic Activation: RAT, LIVER, S-9, PHENOBARBITAL AND 5,6-BENZOFLAVONE, Method: PREINCUBATION) was “inactive; negative”, the mutagenic call (Test System: AMES SALMONELLA TYPHIMURIUM, Strain/Indicator: TA1535, Metabolic Activation: NONE, Method: PREINCUBATION) was “inactive; negative” and the mutagenic call (Test System: AMES SALMONELLA TYPHIMURIUM, Strain/Indicator: TA1535, Metabolic Activation: RAT, LIVER, S-9, PHENOBARBITAL AND 5,6-BENZOFLAVONE, Method: PREINCUBATION) was “inactive; negative”. For the same compound, the mutagenic call (Test System: AMES SALMONELLA TYPHIMURIUM, Strain/Indicator: TA1537, Metabolic Activation: NONE, Method: PREINCUBATION) was “inactive; negative”, the mutagenic call (Test System: AMES SALMONELLA TYPHIMURIUM, Strain/Indicator: TA1537, Metabolic Activation: RAT, LIVER, S-9, PHENOBARBITAL AND 5,6-BENZOFLAVONE, Method: PREINCUBATION) was “inactive; negative” and the mutagenic call (Test System: E. COLI, Strain/Indicator: WP2 UVRA, Metabolic Activation: NONE, Method: PREINCUBATION) was “inactive; negative”. For the same compound, the mutagenic call (Test System: E. COLI, Strain/Indicator: WP2 UVRA, Metabolic Activation: RAT, LIVER, S-9, PHENOBARBITAL AND 5,6-BENZOFLAVONE, Method: PREINCUBATION) was “inactive; negative”.

Reference: PubChem BioAssay AID1259407 (Chemical Carcinogenesis Research Information System (CCRIS), 2018)
